{"source": "ChEMBL document CHEMBL1145656", "about": "“Production of cytotoxic canthin-6-one alkaloids by Ailanthus altissima plant cell cultures” (J Nat Prod, 1983)", "experiment": "Cytotoxicity against GPK cells by [3H]thymidine incorporation assay", "format": "functional, cell-based", "settings": "Cavia porcellus"}
{"compound": "O=c1ccc2c3c(cc[n+]2[O-])c2ccccc2n13", "values": [{"measurement": "IC50", "result": 4.21, "unit": "µg/mL"}]}
{"compound": "COc1cnc2ccc(=O)n3c4ccccc4c1c23", "values": [{"measurement": "IC50", "result": 5.76, "unit": "µg/mL"}]}
{"compound": "COc1cc2nccc3c4ccccc4n(c1=O)c23", "note": "[5-METHOXYCANTHINONE]", "values": [{"measurement": "IC50", "result": 5.44, "unit": "µg/mL"}]}
{"compound": "O=c1ccc2nccc3c4ccccc4n1c23", "note": "[CANTHIN-6-ONE]", "values": [{"measurement": "IC50", "result": 1.11, "unit": "µg/mL"}]}
